As a reminder, the T/C is the ratio of treated to control.

“And” between values parts separate entries of the source, which are not always exact repeats. Equal entries are not always repeated.

Among the data in PubChem BioAssay AID180 (DTP/NCI, 2004) are T/C values, retold here.

The subject of the experiment is BDF1 mice, Adenocarcinoma 755 s.c., tumor weight T/C. Briefly: NCI In Vivo Anticancer Drug Screen. Data for tumor model Adenocarcinoma 755 (subcutaneous) in B6D2F1 (BDF1) mice. To be noted: endpoint: mean tumor weight, higher = larger tumour. Put shortly:
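Transplantable tumor implanted; mice dosed with compound or vehicle; survival or tumor size recorded; ratio of treated to vehicle control reported.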

The mark [1] stands for this setting: dose: 30.0 mg/kg/injection, schedule: Q01DX011 (ip), vehicle: carboxymethylcellulose (CMC).
The mark [2] stands for this setting: dose: 120.0 mg/kg/injection, schedule: Q01DX011 (ip), vehicle: carboxymethylcellulose (CMC).
The mark [3] stands for this setting: dose: 60.0 mg/kg/injection, schedule: Q01DX011 (ip), vehicle: carboxymethylcellulose (CMC).
[4] abbreviates: dose: 31.0 mg/kg/injection, schedule: Q01DX011 (ip), vehicle: methylcellulose (MC).
The mark [5] stands for this setting: dose: 62.0 mg/kg/injection, schedule: Q01DX011 (ip), vehicle: methylcellulose (MC).
Setting [6] is: dose: 125.0 mg/kg/injection, schedule: Q01DX011 (ip), vehicle: methylcellulose (MC).
Where [7] appears, read: dose: 250.0 mg/kg/injection, schedule: Q01DX011 (ip), vehicle: methylcellulose (MC).
Where [8] appears, read: dose: 15.0 mg/kg/injection, schedule: Q01DX011 (ip), vehicle: methylcellulose (MC).

Turning to `CS(=O)(=O)OCCC(=O)NCCCNC(=O)CCOS(C)(=O)=O`, the T/C was 85 % of control (dose: 28.0 mg/kg/injection, schedule: Q01DX011 (ip), vehicle: methylcellulose (MC)) and 49 % of control (dose: 52.0 mg/kg/injection, schedule: Q01DX011 (ip), vehicle: methylcellulose (MC)).
On to `COc1cc(/C=N/Nc2nc3c([nH]2)c(=O)n(C)c(=O)n3C)ccc1O`, for which the T/C runs as follows: under setting [1], 91 % of control; under setting [2], 119 % of control.
Turning to `CCC(C)Cn1cnc2c(SCc3ccccn3)nc(N)nc21` (stereo not given), the T/C is 37 % of control (dose: 16.2 mg/kg/injection, schedule: Q01DX011 (ip), vehicle: methylcellulose (MC)); 32 % of control (dose: 32.5 mg/kg/injection, schedule: Q01DX011 (ip), vehicle: methylcellulose (MC)); 23 % of control and 29 % of control (dose: 65.0 mg/kg/injection, schedule: Q01DX011 (ip), vehicle: methylcellulose (MC)).
With `[I][Hg][CH2]C1OC2CCC1C[CH]2[Hg][I]` (stereo not given), the T/C (dose: 6.0 mg/kg/injection, schedule: Q01DX011 (ip), vehicle: carboxymethylcellulose (CMC)) was 89 % of control.
In the case of `CO[C@@H]1[C@@H](OC2OC(C)C(OC3CC(C)(O)C(OC(=O)CC(C)C)C(C)O3)C(N(C)C)C2O)[C@@H](CC=O)C[C@@H](C)C(=O)/C=C/C2O[C@H]2C[C@@H](C)OC(=O)C[C@H]1OC(C)=O` (stereo not given in full), the T/C runs as follows: (dose: 200.0 mg/kg/injection, schedule: Q01DX011 (ip), vehicle: other) 66 % of control; (dose: 250.0 mg/kg/injection, schedule: Q01DX011 (ip), vehicle: other) 60 % of control and 63 % of control; (dose: 300.0 mg/kg/injection, schedule: Q01DX011 (ip), vehicle: other) 24 % of control and 33 % of control; (dose: 350.0 mg/kg/injection, schedule: Q01DX011 (ip), vehicle: other) 45 % of control.
`Cn1c(=O)c2c(n(C)c1=O)[n+]([O-])c([N+]1([O-])CCOCC1)n2C`: the T/C is 91 % of control (dose: 30.0 mg/kg/injection, schedule: Q01DX011 (ip), vehicle: methylcellulose (MC)); 100 % of control (dose: 60.0 mg/kg/injection, schedule: Q01DX011 (ip), vehicle: methylcellulose (MC)); 95 % of control (dose: 120.0 mg/kg/injection, schedule: Q01DX011 (ip), vehicle: methylcellulose (MC)); 95 % of control (dose: 240.0 mg/kg/injection, schedule: Q01DX011 (ip), vehicle: methylcellulose (MC)).
In the case of `Nc1ncnc(F)c1N`, the T/C runs as follows: (dose: 15.5 mg/kg/injection, schedule: Q01DX011 (ip), vehicle: carboxymethylcellulose (CMC)) 106 % of control; under setting [1], 96 % of control; under setting [3], 123 % of control; under setting [2], 89 % of control.
For the compound `COC1CC(OS(C)(=O)=O)C(COS(C)(=O)=O)O1` (stereo not given), the T/C (dose: 25.0 mg/kg/injection, schedule: Q01DX011 (ip), vehicle: saline) was 120 % of control; the T/C (dose: 75.0 mg/kg/injection, schedule: Q01DX011 (ip), vehicle: saline) was 117 % of control; the T/C (dose: 225.0 mg/kg/injection, schedule: Q01DX011 (ip), vehicle: saline) was 104 % of control.
Turning to `CC12CCC3C(CCC4CC=CCC43C)C1CCC2=O` (stereo not given), the T/C by setting is: (dose: 62.55 mg/kg/injection, schedule: Q01DX011 (sc), vehicle: steriod suspending solution) 90 % of control; (dose: 125.0 mg/kg/injection, schedule: Q01DX011 (sc), vehicle: steriod suspending solution) 99 % of control; (dose: 250.0 mg/kg/injection, schedule: Q01DX011 (sc), vehicle: steriod suspending solution) 60 % of control; (dose: 500.0 mg/kg/injection, schedule: Q01DX011 (sc), vehicle: steriod suspending solution) 84 % of control.
Take `CC1CC(C)(O)CC(C(O)CC2CC(=O)NC(=O)C2)C1=O` (stereo not given): the T/C is, setting by setting: (dose: 0.05 mg/kg/injection, schedule: Q01DX011 (ip), vehicle: methylcellulose (MC)) 71 % of control; (dose: 0.1 mg/kg/injection, schedule: Q01DX011 (ip), vehicle: alkali diluted with saline) 62 % of control; (dose: 0.1 mg/kg/injection, schedule: Q01DX011 (ip), vehicle: methylcellulose (MC)) 44 % of control; (dose: 0.2 mg/kg/injection, schedule: Q01DX011 (ip), vehicle: alkali diluted with saline) 17 % of control; (dose: 0.2 mg/kg/injection, schedule: Q01DX011 (ip), vehicle: methylcellulose (MC)) 32 % of control.
Turning to `OC1CC([CH2][Hg][I])OC([CH2][Hg][I])C1` (stereo not given), the T/C reads like this: (dose: 25.0 mg/kg/injection, schedule: Q01DX011 (ip), vehicle: carboxymethylcellulose (CMC)) 60 % of control; (dose: 50.0 mg/kg/injection, schedule: Q01DX011 (ip), vehicle: carboxymethylcellulose (CMC)) 30 % of control.
Regarding `Nc1[nH]cnc(=S)c1NC=O`, the T/C under setting [1] is 84 % of control; the T/C under setting [3] was 63 % of control; the T/C under setting [2] was 86 % of control; the T/C (dose: 200.0 mg/kg/injection, schedule: Q01DX011 (ip), vehicle: carboxymethylcellulose (CMC)) is 101 % of control; the T/C (dose: 240.0 mg/kg/injection, schedule: Q01DX011 (ip), vehicle: carboxymethylcellulose (CMC)) was 26 % of control; the T/C (dose: 400.0 mg/kg/injection, schedule: Q01DX011 (ip), vehicle: carboxymethylcellulose (CMC)) was 29 % of control.
In the case of `O=[N+]([O-])c1ccc2ncccc2c1`, the T/C reads like this: (dose: 31.2 mg/kg/injection, schedule: Q01DX011 (ip), vehicle: other) 83 % of control; (dose: 62.5 mg/kg/injection, schedule: Q01DX011 (ip), vehicle: other) 52 % of control.
In the case of `CSc1ncc(Br)c(NCc2ccccc2Cl)n1`, the T/C was 65 % of control (dose: 25.0 mg/kg/injection, schedule: Q01DX011 (ip), vehicle: methylcellulose (MC)); 106 % of control under setting [4]; 103 % of control under setting [5]; 85 % of control under setting [6]; 80 % of control under setting [7].
For the compound `C1CN1P1(N2CC2)=NP(N2CC2)(N2CC2)=NP(N2CC2)(N2CC2)=NP(N2CC2)(N2CC2)=N1`, the T/C (dose: 0.4 mg/kg/injection, schedule: Q01DX011 (ip), vehicle: carboxymethylcellulose (CMC)) is 48 % of control; the T/C (dose: 0.4 mg/kg/injection, schedule: Q02DX011 (ip), vehicle: carboxymethylcellulose (CMC)) is 96 % of control; the T/C (dose: 0.8 mg/kg/injection, schedule: Q01DX011 (ip), vehicle: carboxymethylcellulose (CMC)) is 22 % of control; the T/C (dose: 0.8 mg/kg/injection, schedule: Q02DX011 (ip), vehicle: carboxymethylcellulose (CMC)) was 54 % of control; the T/C (dose: 1.5 mg/kg/injection, schedule: Q01DX011 (ip), vehicle: methylcellulose (MC)) is 45 % of control; the T/C (dose: 1.5 mg/kg/injection, schedule: Q02DX006 (ip), vehicle: carboxymethylcellulose (CMC)) was 50 % of control. Further, the T/C is, setting by setting: (dose: 1.6 mg/kg/injection, schedule: Q01DX011 (ip), vehicle: carboxymethylcellulose (CMC)) 6 % of control; (dose: 1.6 mg/kg/injection, schedule: Q02DX011 (ip), vehicle: carboxymethylcellulose (CMC)) 31 % of control; (dose: 3.0 mg/kg/injection, schedule: Q01DX011 (ip), vehicle: methylcellulose (MC)) 13 % of control; (dose: 3.0 mg/kg/injection, schedule: Q02DX006 (ip), vehicle: carboxymethylcellulose (CMC)) 10 % of control; (dose: 3.2 mg/kg/injection, schedule: Q02DX011 (ip), vehicle: carboxymethylcellulose (CMC)) 1 % of control; (dose: 6.0 mg/kg/injection, schedule: Q02DX006 (ip), vehicle: carboxymethylcellulose (CMC)) 1 % of control.
In the case of `Nc1nc(=S)cc(Nc2cccc(Cl)c2)[nH]1`, the T/C under setting [8] is 91 % of control, the T/C under setting [5] is 87 % of control and the T/C under setting [6] is 51 % of control.
As for `CCN(CC)c1nc(SCc2ccc(Cl)cc2Cl)ncc1C`, the T/C under setting [8] was 56 % of control; the T/C under setting [4] was 89 % of control; the T/C under setting [5] was 71 % of control; the T/C under setting [6] was 61 % of control; the T/C under setting [7] is 54 % of control.
As for `CC(=O)Nc1nc(SCc2ccccc2)c2ncn(C3CCCO3)c2n1` (stereo not given), the T/C (dose: 6.2 mg/kg/injection, schedule: Q01DX011 (ip), vehicle: methylcellulose (MC)) was 54 % of control; the T/C under setting [8] was 6 % of control; the T/C (dose: 50.0 mg/kg/injection, schedule: Q01DX011 (ip), vehicle: methylcellulose (MC)) was 4 % of control.
With `Cn1c(=O)c2cc[nH]c2n(C)c1=O`, the T/C runs as follows: under setting [1], 87 % of control; under setting [3], 100 % of control.
On to `C[C@]12CCC(=O)C[C@H]1CC[C@@H]1[C@@H]2C(=O)C[C@@]2(C)[C@H]1CC[C@]2(C)O`, for which the T/C is 85 % of control (dose: 10.0 mg/kg/injection, schedule: Q01DX011 (sc), vehicle: steriod suspending solution); 103 % of control (dose: 100.0 mg/kg/injection, schedule: Q01DX011 (sc), vehicle: steriod suspending solution); 105 % of control (dose: 200.0 mg/kg/injection, schedule: Q01DX011 (sc), vehicle: steriod suspending solution).
